Reference: patent US20230085307A1, “PYRIDAZINONE COMPOUND AND HERBICIDE” (NISSAN CHEMICAL CORPORATION, priority 2019, published 2023)

How the values were obtained:
late watergrass = assay: Test Example 2: herbicidal activity, application during weed generation under submerged conditions (Table 17, symbol A); format: in vivo, late watergrass (Echinochloa oryzicola); conditions: AAH 320 g/ha; application during weed generation, submerged conditions
In short: (§1)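 Effect on each weed is rated three weeks post-treatment, using the same scoring criteria as the preceding test. Plants grow from mixed-sown seed in flooded alluvial soil (4 cm water) at 25° C. to 30° C., and are treated at one to two leaves with diluted emulsion dropped onto the water.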

Japanese bulrush = assay: Test Example 2: herbicidal activity, application during weed generation under submerged conditions (Table 17, symbol B); format: in vivo, Japanese bulrush (Schoenoplectus juncoides); conditions: AAH 320 g/ha; application during weed generation, submerged conditions
In short: as §1

barnyard grass [1] = assay: Test Example 3: herbicidal effect by foliage application, Wagner pot (Table 18, symbol H); format: in vivo, barnyard grass (Echinochloa crus-galli); conditions: for herbicidal effect on H (barnyard grass), rating 0-5: 320 g/ha
In short: (§2)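 Plants were sown in alluvial soil held under 0.1–0.5 cm standing water and grown 14 days in a greenhouse at 25–30 °C. An emulsifiable formulation, water-diluted to the set dose, was then sprayed onto the foliage, and effects were scored three weeks later using previously defined criteria.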

rice flat sedge = assay: Test Example 3: herbicidal effect by foliage application, Wagner pot (Table 18, symbol E); format: in vivo, rice flat sedge (Cyperus iria); conditions: for herbicidal effect on E (rice flat sedge), rating 0-5: 320 g/ha
In short: as §2

southern crabgrass [2] = assay: Test Example 4: herbicidal effect by soil treatment (Table 19, symbol F); format: in vivo, southern crabgrass (Digitaria ciliaris); conditions: amount of applied herbicide 320 g/ha
In short: (§3)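 Scoring uses the grading scale of an earlier test, three weeks post-application. Treatment consists of spraying a diluted emulsion formulation across the surface of sterilized diluvial soil in which seeds are buried near 1.5 cm deep; boxes are kept in a greenhouse between 25° C. and 30° C.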

green foxtail = assay: Test Example 4: herbicidal effect by soil treatment (Table 19, symbol G); format: in vivo, green foxtail (Setaria viridis); conditions: amount of applied herbicide 320 g/ha
In short: as §3

barnyard grass [3] = assay: Test Example 4: herbicidal effect by soil treatment (Table 19, symbol H); format: in vivo, barnyard grass (Echinochloa crus-galli); conditions: amount of applied herbicide 320 g/ha
In short: as §3

wild oat [4] = assay: Test Example 4: herbicidal effect by soil treatment (Table 19, symbol I); format: in vivo, wild oat (Avena fatua); conditions: amount of applied herbicide 320 g/ha
In short: as §3

Italian ryegrass [5] = assay: Test Example 4: herbicidal effect by soil treatment (Table 19, symbol K); format: in vivo, Italian ryegrass (Lolium multiflorum); conditions: amount of applied herbicide 320 g/ha
In short: as §3

velvetleaf = assay: Test Example 4: herbicidal effect by soil treatment (Table 19, symbol M); format: in vivo, velvetleaf (Abutilon theophrasti); conditions: amount of applied herbicide 320 g/ha
In short: as §3

redroot pigweed [6] = assay: Test Example 4: herbicidal effect by soil treatment (Table 19, symbol N); format: in vivo, redroot pigweed (Amaranthus retroflexus); conditions: amount of applied herbicide 320 g/ha
In short: as §3

lambsquarters [7] = assay: Test Example 4: herbicidal effect by soil treatment (Table 19, symbol O); format: in vivo, lambsquarters (Chenopodium album); conditions: amount of applied herbicide 320 g/ha
In short: as §3

chickweed = assay: Test Example 4: herbicidal effect by soil treatment (Table 19, symbol P); format: in vivo, common chickweed (Stellaria media); conditions: amount of applied herbicide 320 g/ha
In short: as §3

southern crabgrass [8] = assay: Test Example 5: herbicidal effect by foliage application, plastic box (Table 20, symbol F); format: in vivo, southern crabgrass (Digitaria ciliaris); conditions: foliage application, 320 g/ha; for herbicidal effect grade, F: southern crabgrass: three weeks after application
In short: (§4)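 Post-emergence foliar test in sterilized diluvial soil. Compound applied as water-diluted emulsion at a predetermined rate to 14-day-old plants; evaluation at three weeks.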

barnyard grass [9] = assay: Test Example 5: herbicidal effect by foliage application, plastic box (Table 20, symbol H); format: in vivo, barnyard grass (Echinochloa crus-galli); conditions: foliage application, 320 g/ha; for herbicidal effect grade, H: barnyard grass: three weeks after application
In short: as §4

wild oat [10] = assay: Test Example 5: herbicidal effect by foliage application, plastic box (Table 20, symbol I); format: in vivo, wild oat (Avena fatua); conditions: foliage application, 320 g/ha; for herbicidal effect grade, I: wild oat: three weeks after application
In short: as §4

blackgrass = assay: Test Example 5: herbicidal effect by foliage application, plastic box (Table 20, symbol J); format: in vivo, blackgrass (Alopecurus myosuroides); conditions: foliage application, 320 g/ha; for herbicidal effect grade, J: blackgrass: three weeks after application
In short: as §4

Italian ryegrass [11] = assay: Test Example 5: herbicidal effect by foliage application, plastic box (Table 20, symbol K); format: in vivo, Italian ryegrass (Lolium multiflorum); conditions: foliage application, 320 g/ha; for herbicidal effect grade, K: Italian ryegrass: three weeks after application
In short: as §4

windgrass = assay: Test Example 5: herbicidal effect by foliage application, plastic box (Table 20, symbol L); format: in vivo, windgrass (Apera spica-venti); conditions: foliage application, 320 g/ha, three weeks after application
In short: as §4

redroot pigweed [12] = assay: Test Example 5: herbicidal effect by foliage application, plastic box (Table 20, symbol N); format: in vivo, redroot pigweed (Amaranthus retroflexus); conditions: foliage application, 320 g/ha; for herbicidal effect grade, N: redroot pigweed: three weeks after application
In short: as §4

lambsquarters [13] = assay: Test Example 5: herbicidal effect by foliage application, plastic box (Table 20, symbol O); format: in vivo, lambsquarters (Chenopodium album); conditions: foliage application, 320 g/ha; for herbicidal effect grade, O: lambsquarters: three weeks after application
In short: as §4

persian speedwell = assay: Test Example 5: herbicidal effect by foliage application, plastic box (Table 20, symbol R); format: in vivo, Persian speedwell (Veronica persica); conditions: foliage application, 320 g/ha; for herbicidal effect grade, R: persian speedwell: three weeks after application
In short: as §4

[14] = amount of applied herbicide 320 g/ha
[15] = evaluated three weeks after application

SMILES | herbicidal effect rating, A: late watergrass (late watergrass) | herbicidal effect rating, B: Japanese bulrush (Japanese bulrush) | herbicidal effect on H (barnyard grass), rating 0-5 (barnyard grass [1]) | herbicidal effect on E (rice flat sedge), rating 0-5 (rice flat sedge) | herbicidal effect rating, F: southern crabgrass (southern crabgrass [2]) | herbicidal effect rating, G: green foxtail (green foxtail) | herbicidal effect rating, H: barnyard grass (barnyard grass [3]) | herbicidal effect rating, I: wild oat (wild oat [4]) | herbicidal effect rating, K: Italian ryegrass (Italian ryegrass [5]) | herbicidal effect rating, M: velvetleaf (velvetleaf) | herbicidal effect rating, N: redroot pigweed (redroot pigweed [6]) | herbicidal effect rating, O: lambsquarters (lambsquarters [7]) | herbicidal effect rating, P: chickweed (chickweed) | herbicidal effect grade, F: southern crabgrass (southern crabgrass [8]) | herbicidal effect grade, H: barnyard grass (barnyard grass [9]) | herbicidal effect grade, I: wild oat (wild oat [10]) | herbicidal effect grade, J: blackgrass (blackgrass) | herbicidal effect grade, K: Italian ryegrass (Italian ryegrass [11]) | herbicidal effect grade, L: windgrass (windgrass) | herbicidal effect grade, N: redroot pigweed (redroot pigweed [12]) | further results
CCCC(=O)Oc1c(C)nn(C)c(=O)c1-c1c(-c2ccc(OCC)cc2)sc2ccccc12 [1-014] | 3 (Herbicidal rate of 40% or more and less than 70%) | 3 (Herbicidal rate of 40% or more and less than 70%) | 4 (Herbicidal rate of 70% or more and less than 90%) | 5 (Herbicidal rate of 90% or more (almost completely withered)) | 0 (Herbicidal rate of 5% or less (almost no effect)) | 1 (Herbicidal rate of 5% or more and less than 20%) | 2 (Herbicidal rate of 20% or more and less than 40%) | 0 (Herbicidal rate of 5% or less (almost no effect)) | 0 (Herbicidal rate of 5% or less (almost no effect)) | 0 (Herbicidal rate of 5% or less (almost no effect)) | 0 (Herbicidal rate of 5% or less (almost no effect)) | 2 (Herbicidal rate of 20% or more and less than 40%) | 4 (Herbicidal rate of 70% or more and less than 90%) | 0 (Herbicidal rate of 5% or less (almost no effect)) | 4 (Herbicidal rate of 70% or more and less than 90%) | 1 (Herbicidal rate of 5% or more and less than 20%) | 0 (Herbicidal rate of 5% or less (almost no effect)) | 3 (Herbicidal rate of 40% or more and less than 70%) | 0 (Herbicidal rate of 5% or less (almost no effect)) | 0 (Herbicidal rate of 5% or less (almost no effect)) | herbicidal effect grade, O: lambsquarters (lambsquarters [13]): 2 (Herbicidal rate of 20% or more and less than 40%); herbicidal effect grade, R: persian speedwell (persian speedwell): 5 (Herbicidal rate of 90% or more (almost completely withered))
CCCOc1ccccc1-c1sc2ccccc2c1-c1c(O)c(C)nn(C)c1=O [1-015] | 3 (Herbicidal rate of 40% or more and less than 70%) | 1 (Herbicidal rate of 5% or more and less than 20%) | 5 (Herbicidal rate of 90% or more (almost completely withered)) | 5 (Herbicidal rate of 90% or more (almost completely withered)) | 3 (Herbicidal rate of 40% or more and less than 70%) | 4 (Herbicidal rate of 70% or more and less than 90%) | 4 (Herbicidal rate of 70% or more and less than 90%) | 0 (Herbicidal rate of 5% or less (almost no effect)) | 0 (Herbicidal rate of 5% or less (almost no effect)) | 0 (Herbicidal rate of 5% or less (almost no effect)) | 0 (Herbicidal rate of 5% or less (almost no effect)) | 0 (Herbicidal rate of 5% or less (almost no effect)) | 3 (Herbicidal rate of 40% or more and less than 70%) | 3 (Herbicidal rate of 40% or more and less than 70%) | 3 (Herbicidal rate of 40% or more and less than 70%) | 3 (Herbicidal rate of 40% or more and less than 70%) | 5 (Herbicidal rate of 90% or more (almost completely withered)) | 4 (Herbicidal rate of 70% or more and less than 90%) | 5 (Herbicidal rate of 90% or more (almost completely withered)) | 3 (Herbicidal rate of 40% or more and less than 70%) | herbicidal effect grade, O: lambsquarters (lambsquarters [13]): 0 (Herbicidal rate of 5% or less (almost no effect)); herbicidal effect grade, R: persian speedwell (persian speedwell): 5 (Herbicidal rate of 90% or more (almost completely withered))
CCCC(=O)Oc1c(C)nn(C)c(=O)c1-c1c(-c2ccc(SCC)cc2)sc2ccc(F)cc12 [2-245] | 5 (Herbicidal rate of 90% or more (almost completely withered)) | 3 (Herbicidal rate of 40% or more and less than 70%) |  |  |  |  |  |  |  |  |  |  |  |  |  |  |  |  |  |  | herbicidal effect on H: barnyard grass (barnyard grass [1]; [14]): 5 (Herbicidal rate of 90% or more (almost completely withered)); herbicidal effect on E: rice flat sedge (rice flat sedge; [14]): 4 (Herbicidal rate of 70% or more and less than 90%); herbicidal effect on F: southern crabgrass (southern crabgrass [2]): 4 (Herbicidal rate of 70% or more and less than 90%); herbicidal effect on G: green foxtail (green foxtail): 5 (Herbicidal rate of 90% or more (almost completely withered)); herbicidal effect on H: barnyard grass (barnyard grass [3]): 5 (Herbicidal rate of 90% or more (almost completely withered)); herbicidal effect on I: wild oat (wild oat [4]): 2 (Herbicidal rate of 20% or more and less than 40%); herbicidal effect on K: Italian ryegrass (Italian ryegrass [5]): 4 (Herbicidal rate of 70% or more and less than 90%); herbicidal effect on M: velvetleaf (velvetleaf): 2 (Herbicidal rate of 20% or more and less than 40%); herbicidal effect on N: redroot pigweed (redroot pigweed [6]): 5 (Herbicidal rate of 90% or more (almost completely withered)); herbicidal effect on O: lambsquarters (lambsquarters [7]): 4 (Herbicidal rate of 70% or more and less than 90%); herbicidal effect on P: chickweed (chickweed): 4 (Herbicidal rate of 70% or more and less than 90%); herbicidal effect on F: southern crabgrass (criteria 0-5) (southern crabgrass [8]; [15]): 5 (Herbicidal rate of 90% or more (almost completely withered)); herbicidal effect on H: barnyard grass (criteria 0-5) (barnyard grass [9]; [15]): 5 (Herbicidal rate of 90% or more (almost completely withered)); herbicidal effect on I: wild oat (criteria 0-5) (wild oat [10]; [15]): 5 (Herbicidal rate of 90% or more (almost completely withered)); herbicidal effect on J: blackgrass (criteria 0-5) (blackgrass; [15]): 4 (Herbicidal rate of 70% or more and less than 90%); herbicidal effect on K: Italian ryegrass (criteria 0-5) (Italian ryegrass [11]; [15]): 5 (Herbicidal rate of 90% or more (almost completely withered)); herbicidal effect on N: redroot pigweed (criteria 0-5) (redroot pigweed [12]; [15]): 5 (Herbicidal rate of 90% or more (almost completely withered)); herbicidal effect on O: lambsquarters (criteria 0-5) (lambsquarters [13]; [15]): 5 (Herbicidal rate of 90% or more (almost completely withered)); herbicidal effect on R: persian speedwell (criteria 0-5) (persian speedwell; [15]): 5 (Herbicidal rate of 90% or more (almost completely withered))
